Publication PMC9655874, “Analysis of Volatile Secondary Metabolites in Ocimum basilicum Cell Suspensions: Inhibition, In Silico Molecular Docking, and an ADMET Analysis against Proteolytic Enzymes of Rhynchophorus ferrugineus” (Plants, 2022)
Values after ≈ are worked out from the molar mass of the structure shown. Values joined by “and” are separate entries in the source; they are usually repeats but may differ in a detail not shown here. Equal entries are not always repeated.

Columns and labels:
[1] = target: total proteases of R. ferrugineus midgut; assay: Total proteolytic enzyme activity of 4th instar midgut homogenate, azocasein (in vitro)
Procedure: (§4) The homogenate of R. ferrugineus 4th midgut instar larvae (lab strain) was assayed for total proteolytic enzyme activity using azocasein, as Darrag et al. [26], with modifications. Ten 4th midgut larval homogenates were carefully removed, incised, and then rinsed in a solution containing 0.9% NaCl before even being homogenized in a buffer (500 µL) containing 5 mM dithiothreitol (DTT), 0.1% (v/v) Triton X-100, and 50 mM N-2-hydroxyethyl piperazine-N′-2-ethane sulphonic acid (HEPS), and 8.0 pH. It was spun in a centrifuge (Sigma 3k30), and the remaining homogenates were from a preliminary phase for 30 min at 5000 rpm. Using the supernatants, the protein concentration and proteolytic enzyme activity were determined. […] Before each reaction experiment, 40-day-old methanolic extract of cell suspension, pure chemicals, and 10 μL of enzyme specimens were incubated for 10 min. The addition of the substrate initiated the reaction, which was allowed for 20 min in the case of leupeptin before being terminated 180 min later by adding 300 µL of cold tri-chloroacetic acid (TCA) (10%, v/v). Twenty minutes were spent centrifuging the mixture at 5000 rpm (Sigma 3k30). Overall, 10 µL of NaOH (10 N) was added to the supernatant, and the absorbance was measured using an ELISA plate reader at 450 nm to quantify the enzymes’ specific activity as OD450/mg protein/h.
(§5) An experiment that was set up free of potential inhibitors served as a control. An ELISA plate fast reader measured the enzymes’ absorption at various wavelengths. For each inhibitor, the control enzyme’s percentage activity was assessed for each enzyme. Four instars midgut larvae were treated with previous concentrations of extracts or compounds, assessed as previously mentioned, to measure the protease activity in vivo. Larvae were subjected to extract- and compound-treated leaf discs for 24 h.

[2] = target: metalloprotease of R. ferrugineus midgut; assay: Metalloproteinase specific activity, CEGR substrate (in vitro); conditions: 4th instar midgut homogenate
Procedure: (§6) The ten midgut larvae from the fourth stage were neatly eliminated, dissected, and repeatedly washed with 0.9% NaCl solution. A 500 µL protease test solution, including 50 mM HEPS, 0.1% Triton X-100, and 5 mM DTT (pH 8.0), was utilized to homogenize the midgut instar. The homogenates were then centrifuged employing a Sigma 3k30 (cooling centrifuge) at 5000 rpm for 30 min to evaluate the supernatant’s enzyme activity and protein content. Before introducing CEGR (125 µL, 2% (w/v)), each experiment’s supernatant (10 µL) was incubated in an assay buffer (60 µL) at 37 °C for 20 min (pH 8). During a 10 min incubation period without a substrate, 10 µL enzyme samples were tested (20 min. for EDTA, EGTA, 1.10, Phenanthroline). After 180 min at 37 °C, 300 µL of cold TCA, 10% (v/v), was used to terminate the reaction. For the next 20 min, the mixture was spun (5000 rpm, Sigma 3K30). The absorbance was measured at 450 nm after mixing the supernatant with hydroxide solution (10 µL, 10 N) using an ELISA reader. An enzyme-free assay combination was utilized as a blank, and particular activity was evaluated utilizing the OD493 mg^−1 protein min^−1 and an enzyme-free blank specimen.
as §5

[3] = tested on: metalloprotease of R. ferrugineus midgut; assay: Metalloprotease activity in midgut of treated larvae (in vivo); conditions: larvae treated 24 h, midgut preparation
Procedure: as §6, §5

[4] = tested on: total proteases of R. ferrugineus midgut; assay: Total protease activity in midgut of treated larvae (in vivo); conditions: larvae treated 24 h, midgut preparation
Procedure: as §4, §5

[5] = tested on: R. ferrugineus adults; assay: whole plant or invertebrate; assay type: in vivo; conditions: Rhynchophorus ferrugineus, read-out: LC50 (µg/mL) 95% CF
Procedure: (§1) Cells were suspended in the methanolic extract at serially increasing concentrations for 40 days. To dilute the compounds, TritonX-100 (0.1%) was added to acetone after the chemicals were dissolved. Adults or larvae of R. ferrugineus were purchased. They were then cultured using long lengths of sugar cane stem. The extracts’ anti-larvae action was assessed by applying topically to larvae and keeping them at 4–5 °C for 5 min. Utilizing a manually controlled micro-applicator, each larva had extract injected into its dorsum in three separate 10 µL doses using a 50-ll micro-syringe from Hertfordshire, UK’s Burkard Manufacturing Co., Ltd. (MS-N50; Shizuoka, Japan’s Ito Corp.). Five larvae in a box with three replications were fed on portions of long sugarcane stem measuring 10 cm. […] The sugarcane stem’s ten-centimeter-long portions cut into equal longitudinal halves were used to measure the antifeedant activity against adults. Long sections of sugarcane stem with a surface area of approximately 32.2 cm^2 were dried in air at room temperature, assuming a dipping time of 10 s and an initial serial concentration of (10 mL). Each treated object remained in a plastic container. Each box included an additional pair (male and female). Each therapy was administered ten times. In total, 24-, 48-, 72-, and 96-h feeding observations were assessed.
(§2) Statistics and probit analysis were performed using SPSS 25.0, as mentioned by Finney. To sum up, all numerical predictions of toxicity variables and findings were presented as the mean ± SE. We regressed mortality and translated the resulting dosage to an LC50 value (µg/mL). […] Enzyme activity data were analyzed using an ANOVA. Means were separated using the SNK (Student–Newman–Keuls) test, and deviations at the p ˂ 0.05 level were considered noteworthy.

[6] = target: trypsin proteinase of R. ferrugineus midgut; assay: Serine proteinase specific activity, trypsin (in vitro); conditions: 4th instar midgut homogenate
Procedure: (§7) We used a serine protease assay buffer and a modified version of the fast microplate method to analyze the serine proteinase’s specific activity in mixtures (150 µL) [26]. […] The sample (10 µL) was diluted using an assay buffer to 50 µL to determine the presence of trypsin proteinase, chymotrypsin proteinase, and elastase. Assay buffer was used to dilute stock substrates of BAρNA (100 mg/mL DMSO), both SAAPFρNA and SAAPLρNA (100 mg/mL DMF), to 1.0 mg/mL. To halt the reaction after 15 min of incubation at 37 °C, 50 µL of acetic acid (30%, v/v) was added. The intensity of the activity was measured using a 405 nm ELISA plate reader. A denaturation enzyme was used in place of an active enzyme in the experiment mixture. For three substrates (SAAPLρNA, BAρNA, and SAAPFρNA), activity levels of certain proteinases were assessed as OD mg^−1 protein min^−1.
as §5

[7] = tested on: R. ferrugineus 4th larvae; assay: Topical application (contact insecticide) to fourth instar larvae; assay type: in vivo, Rhynchophorus ferrugineus; conditions: for LD50 (µg/Larvae) 95% CF: 4th larvae, topical, 95% confidence limits in brackets; for LD50: larvae
Procedure: as §1, §2

[8] = tested on: gut proteases of R. ferrugineus fourth larval instar; assay: Specific protease inhibitors against gut proteases of fourth larval instar (in vitro); assay type: biochemical, Rhynchophorus ferrugineus; conditions: Figure S2, in vitro
Procedure: As a starting point (blank), an assessment combination not containing enzymes was utilized. TLCK (trypsin proteinase inhibitor), PMSF (general serine proteinase inhibitor), EDTA (EDTA-metalloproteinase inhibitor), iodoacetic acid (an iodoacetic acid-cysteine proteinase inhibitor), TPCK (chymotrypsin-proteinase inhibitor), and Leupeptin (as general proteinase inhibitor) were added to the reactions. Homogenates of larval fourth-gut tissue were prepared using the same methodology described for the enzyme activity test. The inhibitory test was conducted via a microplate assay, as reported previously. A series of inhibitor levels were prepared to determine the greatest inhibition activity. Concentrations of 0.01, 0.05, 0.1, and 1.0 mM leupeptin; 0.005, 0.01, 0.05, 0.1, and 1 mM TLCK and TPCK; 0.1, 1.0, 10, 50, and 100 mM PMSF; and 0.01, 0.05, 0.1, 1, and 2 mM iodoacetic acid, 100 mM; 1,10 phenanthroline, EDTA, and EGTA concentrations of 0.1, 1, 10, 50, and 100 mM.

[9] = target: cysteine protease of R. ferrugineus midgut; assay: Cysteine proteinase activity (in vitro); assay type: biochemical, Rhynchophorus ferrugineus; conditions: 4th instar midgut homogenate
Procedure: (§3) Utilizing the substrate N-benzoyl-Phe-Val-Arg-p-nitroanilide hydrochloride and certain modifications, the cysteine proteinases of R. ferrugineus homogenate from the fourth midgut instar was tested for activity. Ten larvae of the fourth midgut were carefully taken out, dissected, and periodically washed with 0.9% (w/v) NaCl solution, assay buffer containing 50 mM HEPS, 5 mM DTT, and 0.1% Triton X-100 (v/v) (pH 8.0, 500 µL) was used to homogenize the samples. The homogenates were spun using a cooling Sigma 3k30 centrifuge for 30 min at 5000 rpm. […] Before introducing 100 µL of the substrate, 10 µL of the supernatant was incubated in assay buffer (60 µL, pH = 8) at 37 °C for 30 min. Enzyme samples in 10 µL were incubated for 10 min with iodoacetic acid before the addition of the substrate. […] The absorbance at 520 nm was measured after spinning the reaction for 6 min at 5000 rpm. The activity in the midgut was assayed at OD520.60 min^−1 mg^−1 of protein with an ELISA rapid reader.

[10] = tested on: trypsin proteinase of R. ferrugineus midgut; assay: Trypsin activity in midgut of treated larvae (in vivo); conditions: larvae treated 24 h, midgut preparation
Procedure: as §7, §5

[11] = tested on: elastase of R. ferrugineus midgut; assay: Elastase activity in midgut of treated larvae (in vivo); set-up: species or system Rhynchophorus ferrugineus; conditions: larvae treated 24 h, midgut preparation
[12] = target: elastase of R. ferrugineus midgut; assay: Serine proteinase specific activity, elastase (in vitro); assay type: biochemical, Rhynchophorus ferrugineus; conditions: 4th instar midgut homogenate
[13] = tested on: cysteine protease of R. ferrugineus midgut; assay: Cysteine protease activity in midgut of treated larvae (in vivo); set-up: species or system Rhynchophorus ferrugineus; conditions: larvae treated 24 h, midgut preparation
Procedure: as §3

Row | SMILES | IC50 total proteases (in vitro) [1] | IC50 metalloprotease (in vitro) [2] | IC50 metalloprotease (in vivo) [3] | IC50 total proteases (in vivo) [4] | LC50 [5] | IC50 trypsin proteinase (in vitro) [6] | LD50 (µg/Larvae) 95% CF [7] | LD50 ([7]; topical application) | Effect on extracted gut proteases of the fourth larval instar [8] | IC50 cysteine protease (in vitro) [9] | IC50 trypsin proteinase (in vivo) [10] | IC50 elastase (in vivo) [11] | IC50 elastase (in vitro) [12] | IC50 cysteine protease (in vivo) [13] | LD50 [7]
1 | C=C1/C=C/[C@H](C(C)C)CC/C(C)=C/CC1 [germacrene D] | 182.1 µg/mL (≈ 891 µM) | 112.3 µg/mL (≈ 550 µM) | 574.6 µg/mL (≈ 2810 µM) | 861.2 µg/mL (≈ 4210 µM) | 2040 µg/mL (≈ 10000 µM) | 144.2 µg/mL (≈ 706 µM) | 21.3 (19.7–22.5) µg/Larvae | 21.3 µg/larva |  |  |  |  |  |  | 
2 | O=C(O)CI [iodoacetic acid] |  |  |  |  |  |  |  |  | significantly inhibited |  |  |  |  |  | 
3 | C=CC(C)(O)CCC=C(C)C (stereo not shown) [linalool] | 90.7 µg/mL (≈ 588 µM) | 278.2 µg/mL (≈ 1800 µM) |  | 192.7 µg/mL (≈ 1250 µM) | 1400 µg/mL (≈ 9060 µM) | 63.4 µg/mL (≈ 411 µM) | 13.7 (12.6–14.8) µg/Larvae | 13.7 µg/larva |  | 189.2 µg/mL (≈ 1230 µM) | 137.5 µg/mL (≈ 891 µM) | 217.2 µg/mL (≈ 1410 µM) | 104.2 µg/mL (≈ 676 µM) | 348.2 µg/mL (≈ 2260 µM) | 13.7 µg/larva
4 | CC(C)=CCC/C(C)=C\CO [nerol] | 188.3 µg/mL (≈ 1220 µM) | 106.7 µg/mL (≈ 692 µM) | 189.1 µg/mL (≈ 1230 µM) | 248.6 µg/mL (≈ 1610 µM) | 1950 µg/mL (≈ 12600 µM) | 68.1 µg/mL (≈ 441 µM) | 15.6 (14.3–16.2) µg/Larvae | 15.6 µg/larva |  |  | 186.3 µg/mL (≈ 1210 µM) |  |  |  | 15.6 µg/larva
5 | C=C(C)C1CCC(C)C2=C(C1)C(C)CC2 (stereo not drawn) [α-guaiene] | 107.4 µg/mL (≈ 526 µM) | 124.9 µg/mL (≈ 611 µM) | 594.7 µg/mL (≈ 2910 µM) | 694.7 µg/mL (≈ 3400 µM) | 1490 µg/mL (≈ 7300 µM) | 66.8 µg/mL (≈ 327 µM) | 19.2 (17.8–20.7) µg/Larvae | 19.2 µg/larva |  | 238.5 µg/mL (≈ 1170 µM) | 454.4 µg/mL (≈ 2220 µM) |  |  | 642.3 µg/mL (≈ 3140 µM) | 
6 | C=C1CCC2CC1C2(C)CCC=C(C)C (stereo not drawn) [β-bergamotene] | 78.9 µg/mL (≈ 386 µM) | 134.8 µg/mL (≈ 660 µM) | 613.5 µg/mL (≈ 3000 µM) | 598.3 µg/mL (≈ 2930 µM) | 1290 µg/mL (≈ 6330 µM) | 58.5 µg/mL (≈ 286 µM) | 17.2 (16.1–18.4) µg/Larvae | 17.2 µg/larva |  | 119.6 µg/mL (≈ 585 µM) | 284.5 µg/mL (≈ 1390 µM) |  |  | 521.4 µg/mL (≈ 2550 µM) | 
7 | C=C1CC/C=C(\C)CC[C@@H]2[C@@H]1CC2(C)C [β-caryophyllene] | 176.3 µg/mL (≈ 863 µM) | 314.5 µg/mL (≈ 1540 µM) |  | 748.2 µg/mL (≈ 3660 µM) | 1520 µg/mL (≈ 7450 µM) | 70.4 µg/mL (≈ 344 µM) | 20.1 (18.7–21.4) µg/Larvae | 20.1 µg/larva |  | 204.4 µg/mL (≈ 1000 µM) | 489.3 µg/mL and 542.8 µg/mL |  |  | 586.3 µg/mL (≈ 2870 µM) | 
8 | C=CC(=C)CCC=C(C)CCC=C(C)C [β-farnesene] | 88.6 µg/mL (≈ 434 µM) | 101.5 µg/mL (≈ 497 µM) | 545.7 µg/mL (≈ 2670 µM) | 675.2 µg/mL (≈ 3300 µM) | 1360 µg/mL (≈ 6640 µM) | 60.2 µg/mL (≈ 295 µM) | 18.4 (17.1–19.7) µg/Larvae | 18.4 µg/larva |  | 128.4 µg/mL (≈ 628 µM) | 425.8 µg/mL (≈ 2080 µM) |  |  | 536.8 µg/mL (≈ 2630 µM) | 
9 | CC1=CCC(C(C)C)=CC1 [γ-terpinene] | 268.1 µg/mL (≈ 1970 µM) | 526.8 µg/mL (≈ 3870 µM) |  | 337.4 µg/mL (≈ 2480 µM) |  | 229.7 µg/mL (≈ 1690 µM) |  |  |  |  | 594.1 µg/mL (≈ 4360 µM) | 315.8 µg/mL (≈ 2320 µM) | 154.3 µg/mL (≈ 1130 µM) |  | 
